Test results published in patent publication US5220042A, “1,4-benzoquinone derivatives and benzene derivatives, and process for preparing the same” (priority 1984, dated 1993).
Like-named read-outs stand apart in the source and are kept apart here.

Tested on: SRS-A release from lung fragments
Test: Inhibition of SRS-A release from sensitized guinea pig lung fragments
Type: cell-based, guinea pig (Hartley strain)
Conditions: Cavia porcellus
Method: Inhibitory activities on the release of SRS-A and histamine of the present compounds were determined.
A male guinea pig (Hartley strain) (body weight: about 300 g) was sensitized by a method according to P. Anderson: "Int. Archs. Allergey appln. Immunol., Vol. 64, pages 249-258 (1981). Thus, 30 mg/kg of cyclophosphamide was intraperitoneally administered to the guinea pig, and 2 days after 1 microgram of ovalbumin (manufactured by Sigma Chemical Co., St. Louis, Mo. U. S. A.) together with 10 mg of aluminium hydroxide gel were intraperitoneally administered so as to have the animal sesitized.
50 Days after the sesitization, the animal was killed by exsanguination, and the lung was isolated from the animal and was perfused with 20 ml of Tyrode's solution, then immersed in an ice-cooled Tyrode's solution. The parenchyma of the lung was cut by using McIlwain-type tissue chopper to make it into fragments of lung having 2 mm square and the fragments were washed with Tyrode's solution. 400 Milligrams of sectiles of lung were suspended in 3.6 ml of Tyrode's solution, and this suspension was preincubated at 37° C. for 5 minutes, then 4 microliters of dimethyl sulfoxide solution of the test compound, in the case of control 4 microliters of dimethyl sulfoxide alone was added to the suspension. 5 Minutes after, 0.4 ml of 100 micrograms/ml of ovalbumin solution added so as to release SRS-A for 10 minutes. The suspension was ice-cooled and filtered through gauze, the filtrate was centrifuged at 2,000 rpm for 10 minutes and the supernatant was collected. The supernatant was stored in freezed state at -80° C. until bio-assay was conducted.
Amounts of SRS-A and histamine contained in the supernatant were determined by bio-assay using ileum of guinea pig.
A piece of the ileum (2-3 cm of length) positioned from 15-25 cm from the opening portion of ileocecum was isolated from a male guinea pig (Hartley strain) (body weight: 400-600 g) which was fasted for 24 hours. The piece of ileum was hanged vertically in a Magnus tube which was filled with 10 ml of Tyrode's solution containing 10^-7 M of atropine sulfate under air stream conditions. The isotonic contraction of the piece of the ileum was measured at 0.5 g of load by using an isotonic transducer "TD-112S" (manufactured by Nihon Koden Co., Ltd.). The measurements were carried out after the reaction to histamine of the piece of ileum was kept constant. Bioassay of histamine was measured by using the value of contraction shown in 30 seconds after the addition of the supernatant. Bioassay of on SRS-A was measured by using the value of contraction shown at 2 minutes after the addition of the supernatant in the presence of 10^-6 M of pyrilamine (manufactured by Sigma Chemical Co.), and compared with the standard curve of crude SRS-A released from the fragments of the lung.

[1] = Table 2, dose 3 μM, read-out: Inhibition ratio (%) SRS-A
[2] = Table 2, dose 30 μM, read-out: Inhibition ratio (%) SRS-A
[3] = Table 2B, 3 μM, read-out: Inhibitory activities on SRS-A (%)
[4] = Table 2B, 30 μM, read-out: Inhibitory activities on SRS-A (%)
[5] = Table 2B, read-out: Inhibitory activities on SRS-A (%)

SMILES	inhibition at 3 µM [1] [%]	inhibition at 30 µM [2] [%]	inhibition at 3 µM [3] [%]	inhibition at 30 µM [4] [%]	inhibition at 1 µM [5] [%]	inhibition at 10 µM [5] [%]
COC1=CC(=O)C(OC)=C(CCCCCCCC#CCCCCCCCC2=C(OC)C(=O)C=C(OC)C2=O)C1=O [Test Compound No. 20, 2,2'-(8-Hexadecynylene)bis(3,6-dimethoxy-1,4-benzoquinone)]	14.5	24.1	14.5	24.1		
COC1=CC(=O)C(OC)=C(CCCCCCCCCC#CCCCCCCCCCC2=C(OC)C(=O)C=C(OC)C2=O)C1=O [Test Compound No. 21, 2,2'-(10-Eicosynylene)bis(3,6-dimethoxy-1,4-benzoquinone)]	-21.7	16.6	-21.7	16.6		
COC1=CC(=O)C(OC)=C(CCC2=C(OC)C(=O)C=C(OC)C2=O)C1=O [Test Compound No. 23, 2,2'-Ethylenebis(3,6-dimethoxy-1,4-benzoquinone)]				28.6		
COC1=CC(=O)C(OC)=C(CCCCC2=C(OC)C(=O)C=C(OC)C2=O)C1=O [Test Compound No. 24, 2,2'-Tetramethylenebis(3,6-dimethoxy-1,4-benzoquinone)]					36.1	67.7
COC1=CC(=O)C(OC)=C(CCCOCCC2=C(OC)C(=O)C=C(OC)C2=O)C1=O [Test Compound No. 25, 2-(3,6-Dimethoxy-1,4-benzoquinon-2-yl)ethyl 3-(3,6-dimethoxy-1,4-benzoquinon-2-yl)propyl ether]					52.4	94.4
COC1=CC(=O)C(OC)=C(COCC2=C(OC)C(=O)C=C(OC)C2=O)C1=O [Test Compound No. 26, Bis[(3,6-Dimethoxy-1,4-benzoquinon-2-yl)methyl] ether]			10.9	39.8		
COC1=CC(=O)C(OC)=C(CCCC2=C(OC)C(=O)C=C(OC)C2=O)C1=O [Test Compound No. 27, 2,2'-Trimethylenebis(3,6-dimethoxy-1,4-benzoquinone)]					14.9	83.3
COC1=CC(=O)C(OC)=C(CCCSSCCCC2=C(OC)C(=O)C=C(OC)C2=O)C1=O [Test Compound No. 28, Bis[(3,6-dimethoxy-1,4-benzoquinon-2-yl)propyl] disulfide]					30.5	85.2
COC1=CC(=O)C(OC)=C(CCCCCSCCCCCC2=C(OC)C(=O)C=C(OC)C2=O)C1=O [Test Compound No. 29, Bis[(3,6-dimethoxy-1,4-benzoquinon-2-yl)-pentyl]sulfide]					19.6	60.5
CCCCC#CCCCC1=C(OC)C(=O)C=C(OC)C1=O [Test Compound No. 35, 2,5-Dimethoxy-3-(4-nonynyl)-1,4-benzoquinone]			64.9	96		
COCOc1cc(OC)c(OCOC)c(CCCCCc2c(OC)c(OCOC)cc(OC)c2OCOC)c1OC [Test Compound No. 36, 1,5-bis[1,4-Dimethoxy-2,5-bis(methoxymethoxy)-phen-3-yl]pentane]			12.1	24.5		
COc1cc(OC(C)=O)c(OC)c(CCCCCc2c(OC)c(OC(C)=O)cc(OC)c2OC(C)=O)c1OC(C)=O [Test Compound No. 37, 1,5-bis[1,4-Diacetoxy-2,5-(dimethoxy)phen-3-yl]-pentane]			69.2	90		
CCCCC1=C(OC)C(=O)C(CCCCCC2=C(OC)C(=O)C=C(OC)C2=O)=C(OC)C1=O [Test Compound No. 38, 3-Butyl-2,5-dimethoxy-6-[5-(2,5-dimethoxy-1,4-benzoquinon-3-yl)pentyl]-1,4-benzoquinone]					25.1	38.2
CCCCC#CCCCC1=C(OC)C(=O)C(CCCCCC2=C(OC)C(=O)C=C(OC)C2=O)=C(OC)C1=O [Test Compound No. 39, 2,5 Dimethoxy-3-(4-nonynyl)-6-[5-(2,5-dimethoxy-1,4-benzoquinon-3-yl)pentyl]-1,4-benzoquinone]					0	11
COC1=CC(=O)C(OC)=C(CCCCCC2=C(OC)C(=O)C(CCO)=C(OC)C2=O)C1=O [Test Compound No. 40, 2,5-Dimethoxy-3-(2-hydroxyethyl)-6-[5-(2,5-dimethoxy-1,4-benzoquinon-3-yl)pentyl]-1,4-benzoquinone]					38.2	91.7
COC1=CC(=O)C(OC)=C(CCCCCC2=C(OC)C(=O)C(CCCCCC3=C(OC)C(=O)C=C(OC)C3=O)=C(OC)C2=O)C1=O [Test Compound No. 41, 2,5-Dimethoxy-3,6-bis[5-(2,5-dimethoxy-1,4-benzoquinon-3-yl)-entyl]-1,4-benzoquinone]					4.1	25
COC1=CC(=O)C(OC)=C(OCCCOC2=C(OC)C(=O)C=C(OC)C2=O)C1=O [Test Compound No. 42, 2,2'-Trimethylenedioxybis(3,6-dimethoxy-1,4-benzoquinone)]					28.4	80
COC1=CC(=O)C(OC)=C(CCCCCC2=C(OC)C(=O)C(SC)=C(OC)C2=O)C1=O [Test Compound No. 43, 1-(2,5-Dimethoxy-1,4-benzoquinon-3-yl)-5-(2,5-dimethoxy-3-methylthio-1,4-benzoquinon-6-yl)pentane]					23.2	79.4
CCOC(=O)C1=C(OC)C(=O)C(CCCCCC2=C(OC)C(=O)C=C(OC)C2=O)=C(OC)C1=O [Test Compound No. 44, 1-(2,5-Dimethoxy-1,4-benzoquinon-3-yl)-5-(2,5-dimethoxy-3-ethoxycarbonyl-1,4-benzoquinon-6-yl)pentane]					-10.5	18.6
COC1=C(CCCCCC2=C(OC)C(=O)C(SC)=C(OC)C2=O)C(=O)C(OC)=C(SC)C1=O [Test Compound No. 45, 2,2'-Pentamethylenebis(3,6-dimethoxy-5-methylthio-1,4-benzoquinone)]					28.1	50.7
CCOC(=O)C1=C(OC)C(=O)C(CCCCCC2=C(OC)C(=O)C(C(=O)OCC)=C(OC)C2=O)=C(OC)C1=O [Test Compound No. 46, 2,2'-Pentamethylenebis(3,6-dimethoxy-5-ethoxycarbonyl-1,4-benzoquinone)]					18.2	16.2
CCCCC1=C(OC)C(=O)C(CCCCCC2=C(OC)C(=O)C(CCO)=C(OC)C2=O)=C(OC)C1=O [Test Compound No. 47, 1-(2,5-Dimethoxy-3-butyl-1,4-benzoquinon-6-yl)-[2,5-dimethoxy-3-(2-hydroxyethyl)-1,4-benzoquinon-6-yl]pentane]					15.8	47.6
COC1=C(CCO)C(=O)C(OC)=C(CCCCCC2=C(OC)C(=O)C(OC)=C(OC)C2=O)C1=O [Test Compound No. 48, 1-(2,3,5-Trimethoxy-1,4-benzoquinon-6-yl)-5-[2,5-dimethoxy-3-(2-hydroxyethyl)-1,4-benzoquinon-6-yl]pentane]					37.6	89.4
COC1=C(CCO)C(=O)C(OC)=C(CCCCCC2=C(OC)C(=O)C(SC)=C(OC)C2=O)C1=O [Test Compound No. 49, 1-(2,5-Dimethoxy-3-methylthio-1,4-benzoquinon-6-yl)-5-[2,5-dimethoxy-3-(2-hydroxyethyl)-1,4-benzoquinon-6-yl]pentane]					-0.4	65.2
CCOC(=O)C1=C(OC)C(=O)C(CCCCCC2=C(OC)C(=O)C(CCO)=C(OC)C2=O)=C(OC)C1=O [Test Compound No. 50, 1-(2,5-Dimethoxy-3-ethoxycarbonyl-1,4-benzoquinon-6-yl)-5-[2,5-dimethoxy-3-(2-hydroxyethyl)-1,4-benzoquinon-6-yl]pentane]					14.8	41.7
COC1=CC(=O)C(O)=C(CCCCCC2=C(O)C(=O)C=C(OC)C2=O)C1=O [Test Compound No. 51, 2,2'-Pentamethylenebis(3-hydroxy-6-methoxy-1,4-benzoquinone)]					11.8	60.8
